Reference: patent US7728036B2, “Methods for delivery of catecholic butanes for treatment of tumors” (priority 2003, dated 2010)

Columns and labels:
[1] = tested on: human tumor xenografts (MCF-7, Hep3B, HT-29, LNCaP); conditions: all four tumor types, of 39 M4N-treated tumors, 21 days
Procedure: Xenograft Assay of Human Tumors. Athymic nude mice were implanted subcutaneously in their flanks with 2.5×10^6 Hep3B cells, 2×10^6 LNCaP cells, 1×10^7 HT-29 cells, or 2×10^6 MCF-7 cells.
M4N was dissolved in 6% Cremaphor EL, 6% ethanol, 88% saline as described in Loganzo et al. (2003). Mice received a single daily 100 μL i.p. injection containing 2 mg of M4N for 3 weeks. The control mice received an equal volume of the vehicle. Tumors were measured in two perpendicular dimensions (L and W) once every seven days, and the tumor volumes were calculated according to the following formula: V=(L×W/2)^3×π/6. The results from the individual mice were plotted as average tumor volume versus time. Statistical significance of the mean differences in tumor volume was assessed by Student's t-test.
Athymic nude mice were implanted s.c. in each flank with MCF-7 breast adenocarcinoma cells, Hep3B hepatocellular carcinoma cells, HT-29 colorectal carcinoma cells, and LNCaP prostate carcinoma cells. Most mice developed tumors in both flanks, although some developed a single tumor. When tumors attained a mean diameter of 7-8 mm, mice received for three weeks a single daily i.p. injection containing 2 mg of M4N dissolved in 100 uL Cremaphor-ethanol based solvent. Control mice received vehicle only. Tumors were measured in two perpendicular dimensions (L and W) once every seven days, and tumor volumes were calculated according to the formula: V=(L×W/2)^3×π/6.

head and neck cancer = assay: Ex-US clinical study in head and neck cancer, daily M4N with or without G4N followed by surgical resection; assay type: in vivo, human
[2] = tested on: MCF-7 breast adenocarcinoma cells; assay: Xenograft assay of human tumors in athymic nude mice, MCF-7; assay type: in vivo
From the text: Xenograft Assay of Human Tumors.
Control mice received vehicle only.

[3] = Maximal tolerable dose study in beagle dogs, clinical observations; assay type: in vivo; conditions: over four hours
Procedure: Thus the M4N-DMSO group animals were administered with M4N-DMSO with eight intravenous injections via the non-VAP jugular vein every 30 minutes over a 4-hour period. This frequency of delivery mimicked the delivery of the test article using the infusion pump.
Animals from the CET group were observed during the entire infusion period and for at least one hour following end of infusion. The dogs in the DMSO group were observed throughout the jugular vein injection period and for at least one hour following the last (eighth) injection.

[4] = Systemic tissue distribution of 3H-M4N 3 hours after single i.p. or i.v. injection; assay type: in vivo, mice
Procedure: M4N Tissue Distribution Studies Using ^3H-M4N. […] The insoluble pellet was then further extracted with EtOH.
At 3 hours post-injection, the organs and blood were harvested and weighed, and the M4N was extracted.

[5] = tested on: various human tumor cells; assay: Cell culture analyses of tumor cell growth; assay type: cell-based
[6] = MCF-7, of 10 M4N-treated tumors, 21 days i.p. treatment

## COc1ccc(C[C@@H](C)[C@@H](C)Cc2ccc(OC)c(OC)c2)cc1OC [M4N, meso-1,4-bis(3,4-dimethoxyphenyl)-2,3-dimethylbutane]
[1]
  DOTV: number of tumors with decrease in volume from the original tumor volume: 21
  IOTV: number of tumors with increase in volume from the original tumor volume: 18
  IOTV: share of tumors with increase in volume: (46%)
Head and neck cancer; for up to five days, with or without concomitant G4N 20 mg per day
  Dose delivered without drug-related toxicity: ≤ 20 mg per day
Head and neck cancer; long-term follow ups, M4N with or without G4N, then surgical resection
  Patients remaining disease free: 64%
Head and neck cancer; patients that completed the treatment
  Efficacy in terms of induction of necrosis: over 80%
[2]; MCF-7, after 21 days systemic M4N treatment
  Reduction in mean tumor volume versus control: 74%
[2]; [6]
  DOTV: number of tumors with decrease in volume from the original tumor volume: 7
  IOTV: number of tumors with increase in volume from the original tumor volume: 3
[2]; MCF-7 xenograft, 2 mg M4N i.p. daily for 3 weeks
  Tumor Volume Increase (%) - 21 Days Treatment, M4N-Treatment: 84%
[2]; MCF-7 xenograft, 2 mg M4N i.p. daily, 21 days
  Ratio of Mean M4N-Treated Tumor Size to Control Tumor Size: 25.5%
[3]; CET vehicle
  Dose safely administered by intravenous infusion: up to 10 mg/kg
[3]; DMSO vehicle
  Dose safely administered intravenously: up to 100 mg/kg
[4]; heart or blood, 3 hours post-injection
  M4N detected in tissue: Little or no M4N
[4]; liver and fat, 3 hours post-injection
  M4N present in tissue: Significant quantities
[4]; mice, single injection
  Toxicity of systemic i.p. and i.v. injection: no apparent toxicity
[5]
  Growth of human tumor cells in culture: effectively prevent the growth
